Test results taken from PubChem BioAssay AID1918957 (Molecular Pharmacology Branch, DTP, NCI, 2023).

System: NCI-H1876 complex spheroid viability
Assay: Anticancer human tumor NCI-H1876 cell line growth inhibition [LSD1];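 further: spheroids exposed to compounds for one week before readout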;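 on viability, T/C: 100% = DMSO vehicle-treated spheroids so lower means fewer viable cells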
Conditions: for IC50: curve of first compound; for viability, T/C: stronger effect = lower value
In short: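 Drug combinations with the LSD1 inhibitor iadademstat tested on tumor cells co-cultured as spheroids with endothelial cells and mesenchymal stem cells. Concentrations descended in half-log increments from clinical Cmax or 10 microM.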

[1] = second compound 0.1 µM, first compound 0.00949 µM
[2] = second compound 0.1 µM, first compound 0.03 µM
[3] = second compound 0.1 µM, first compound 0.0949 µM
[4] = second compound 0.1 µM, first compound 0.3 µM
[5] = second compound 0.316 µM, first compound 0.00949 µM
[6] = second compound 0.316 µM, first compound 0.03 µM
[7] = second compound 0.316 µM, first compound 0.0949 µM
[8] = second compound 0.316 µM, first compound 0.3 µM
[9] = second compound 1 µM, first compound 0.00949 µM
[10] = second compound 1 µM, first compound 0.03 µM
[11] = second compound 1 µM, first compound 0.0949 µM
[12] = second compound 1 µM, first compound 0.3 µM
[13] = second compound 3.16 µM, first compound 0.00949 µM
[14] = second compound 3.16 µM, first compound 0.03 µM
[15] = second compound 3.16 µM, first compound 0.0949 µM
[16] = second compound 3.16 µM, first compound 0.3 µM
[17] = second compound 10 µM, first compound 0.00949 µM
[18] = second compound 10 µM, first compound 0.03 µM
[19] = second compound 10 µM, first compound 0.0949 µM
[20] = second compound 10 µM, first compound 0.3 µM

COc1cc(C2c3cc4c(cc3C(OC3OC5COC(C)OC5C(O)C3O)C3COC(=O)C23)OCO4)cc(OC)c1O (stereo not given) + NC1CCC(NC2CC2c2ccccc2)CC1 gave an IC50 (second compound 0.1 µM) of 61.4 nM, an IC50 (second compound 0.316 µM) of 49.2 nM and an IC50 (second compound 1 µM) of 48.1 nM. For the same compound, the IC50 (second compound 3.16 µM) was 50.9 nM, the IC50 (second compound 10 µM) was 43.9 nM and the viability, T/C [1] was 91.7%. The viability, T/C [2] was 79.6%, the viability, T/C [3] was 31.1% and the viability, T/C [4] was 23.5%. It also gave a viability, T/C (second compound 0.1 µM, first compound 0.949 µM) of 12.2%, a viability, T/C (second compound 0.1 µM, first compound 3 µM) of 11.8% and a viability, T/C [5] of 89%. For the same compound, the viability, T/C [6] was 68.6%, the viability, T/C [7] was 24.9% and the viability, T/C [8] was 22.3%. The viability, T/C (second compound 0.316 µM, first compound 0.949 µM) was 19.2%, the viability, T/C (second compound 0.316 µM, first compound 3 µM) was 10.7% and the viability, T/C [9] was 91.7%. The viability, T/C [10] was 66.4%, the viability, T/C [11] was 26% and the viability, T/C [12] was 22%. It also gave a viability, T/C (second compound 1 µM, first compound 0.949 µM) of 14.4%, a viability, T/C (second compound 1 µM, first compound 3 µM) of 18.9% and a viability, T/C [13] of 94.5%. It also gave a viability, T/C [14] of 64.8%, a viability, T/C [15] of 29.7% and a viability, T/C [16] of 29.5%. For the same compound, the viability, T/C (second compound 3.16 µM, first compound 0.949 µM) was 18.2%, the viability, T/C (second compound 3.16 µM, first compound 3 µM) was 13.7% and the viability, T/C [17] was 82.7%. It also gave a viability, T/C [18] of 62.5%, a viability, T/C [19] of 24.3% and a viability, T/C [20] of 23.4%. It also gave a viability, T/C (second compound 10 µM, first compound 0.949 µM) of 18.1% and a viability, T/C (second compound 10 µM, first compound 3 µM) of 14.2%.
Nc1ccn(C2OC(CO)C(O)C2(F)F)c(=O)n1 (stereo not given) + NC1CCC(NC2CC2c2ccccc2)CC1 gave an IC50 (second compound 0.1 µM) of 6.89 nM, an IC50 (second compound 0.316 µM) of 6.69 nM and an IC50 (second compound 1 µM) of 6.77 nM. The IC50 (second compound 3.16 µM) was 6.75 nM, the IC50 (second compound 10 µM) was 6.25 nM and the viability, T/C (second compound 0.1 µM, first compound 0.000949 µM) was 111%. For the same compound, the viability, T/C (second compound 0.1 µM, first compound 0.003 µM) was 101%, the viability, T/C [1] was 30.3% and the viability, T/C [2] was 22.3%. It also gave a viability, T/C [3] of 22.9%, a viability, T/C [4] of 10.8% and a viability, T/C (second compound 0.316 µM, first compound 0.000949 µM) of 104%. It also gave a viability, T/C (second compound 0.316 µM, first compound 0.003 µM) of 96%, a viability, T/C [5] of 29.7% and a viability, T/C [6] of 18.1%. It also gave a viability, T/C [7] of 11.7%, a viability, T/C [8] of 9.66% and a viability, T/C (second compound 1 µM, first compound 0.000949 µM) of 111%. For the same compound, the viability, T/C (second compound 1 µM, first compound 0.003 µM) was 96.7%, the viability, T/C [9] was 30.3% and the viability, T/C [10] was 18.6%. The viability, T/C [11] was 12.1%, the viability, T/C [12] was 11.3% and the viability, T/C (second compound 3.16 µM, first compound 0.000949 µM) was 110%. It also gave a viability, T/C (second compound 3.16 µM, first compound 0.003 µM) of 107%, a viability, T/C [13] of 26.2% and a viability, T/C [14] of 23.2%. The viability, T/C [15] was 17.9%, the viability, T/C [16] was 9.56% and the viability, T/C (second compound 10 µM, first compound 0.000949 µM) was 109%. The viability, T/C (second compound 10 µM, first compound 0.003 µM) was 90.8%, the viability, T/C [17] was 26.4% and the viability, T/C [18] was 23.5%. The viability, T/C [19] was 17.8% and the viability, T/C [20] was 10.5%.
For O=C(c1cc(Cc2n[nH]c(=O)c3ccccc23)ccc1F)N1CCN(C(=O)C2CC2)CC1 + NC1CCC(NC2CC2c2ccccc2)CC1, the IC50 (second compound 0.1 µM) was 6620 nM, the IC50 (second compound 0.316 µM) was 6160 nM and the IC50 (second compound 1 µM) was 6130 nM. It also gave an IC50 (second compound 3.16 µM) of 5370 nM, an IC50 (second compound 10 µM) of 5050 nM and a viability, T/C (second compound 0.1 µM, first compound 0.0316 µM) of 90.7%. The viability, T/C (second compound 0.1 µM, first compound 0.1 µM) was 99.4%, the viability, T/C (second compound 0.1 µM, first compound 0.316 µM) was 89.4% and the viability, T/C (second compound 0.1 µM, first compound 1 µM) was 94.8%. For the same compound, the viability, T/C (second compound 0.1 µM, first compound 3.16 µM) was 76.2%, the viability, T/C (second compound 0.1 µM, first compound 10 µM) was 35.4% and the viability, T/C (second compound 0.316 µM, first compound 0.0316 µM) was 99.2%. It also gave a viability, T/C (second compound 0.316 µM, first compound 0.1 µM) of 93%, a viability, T/C (second compound 0.316 µM, first compound 0.316 µM) of 89.4% and a viability, T/C (second compound 0.316 µM, first compound 1 µM) of 87.2%. The viability, T/C (second compound 0.316 µM, first compound 3.16 µM) was 69.5%, the viability, T/C (second compound 0.316 µM, first compound 10 µM) was 35.5% and the viability, T/C (second compound 1 µM, first compound 0.0316 µM) was 90.2%. It also gave a viability, T/C (second compound 1 µM, first compound 0.1 µM) of 93%, a viability, T/C (second compound 1 µM, first compound 0.316 µM) of 91.5% and a viability, T/C (second compound 1 µM, first compound 1 µM) of 79.7%. The viability, T/C (second compound 1 µM, first compound 3.16 µM) was 70.5%, the viability, T/C (second compound 1 µM, first compound 10 µM) was 35.8% and the viability, T/C (second compound 3.16 µM, first compound 0.0316 µM) was 90.7%. It also gave a viability, T/C (second compound 3.16 µM, first compound 0.1 µM) of 95.4%, a viability, T/C (second compound 3.16 µM, first compound 0.316 µM) of 86.7% and a viability, T/C (second compound 3.16 µM, first compound 1 µM) of 86.7%. The viability, T/C (second compound 3.16 µM, first compound 3.16 µM) was 64.5%, the viability, T/C (second compound 3.16 µM, first compound 10 µM) was 32.7% and the viability, T/C (second compound 10 µM, first compound 0.0316 µM) was 95.7%. For the same compound, the viability, T/C (second compound 10 µM, first compound 0.1 µM) was 90.6%, the viability, T/C (second compound 10 µM, first compound 0.316 µM) was 85.9% and the viability, T/C (second compound 10 µM, first compound 1 µM) was 79.8%. The viability, T/C (second compound 10 µM, first compound 3.16 µM) was 64.6% and the viability, T/C (second compound 10 µM, first compound 10 µM) was 29.9%.
